# From patent EP1232756A1, “DRUGS, DRINKS OR FOODS” (Takara Shuzo Co, Ltd., priority 1999, dated 2001)
# Experiments:
# [1] = tested on: female SD rat; experiment: Anti-estrogenic activity of n-octyl gallate against NP, rat uterine weight (Example 10); assay type: in vivo; details: for Uterine weight: 1.5 hours before NP, 3 days; for Ratio: vs control (100%)
# Experimental: (§1) A 16-days old female SD rat (Japan SLC) was purchased together with its mother, weaned at 19 days of age, and subjected to experiments from the next day. n-Octyl gallate (Tokyo Kasei Kogyo) was dissolved in a small volume of ethanol. Peanut oil was added thereto to result in a final ethanol concentration of 5%. The resulting mixture was orally administered to the 20-days old female SD rat for three successive days. The uterine removed on the day after the last administration day was weighed. Peanut oil containing 5% ethanol was used for a vehicle administration group. NP weighed such that it would be administered at 50 mg/kg was diluted by adding peanut oil. It was orally administered 1.5 hours after the administration of n-octyl gallate.
# [2] = target: T1, ER(α) (estrogen receptor α) (Homo sapiens, UniProt P03372); experiment: Binding to estrogen receptor, fluorescence polarization competition (FP Screen-for-Competitors kit, ER-α) (Example 7); details: concentration inhibiting 50% of the binding of the ES1-ER(α) complex by competing with ES1; 1 hour at room temperature
# T1 construct: purchased PanVera V2577
# T1 sequence (P03372 1-595): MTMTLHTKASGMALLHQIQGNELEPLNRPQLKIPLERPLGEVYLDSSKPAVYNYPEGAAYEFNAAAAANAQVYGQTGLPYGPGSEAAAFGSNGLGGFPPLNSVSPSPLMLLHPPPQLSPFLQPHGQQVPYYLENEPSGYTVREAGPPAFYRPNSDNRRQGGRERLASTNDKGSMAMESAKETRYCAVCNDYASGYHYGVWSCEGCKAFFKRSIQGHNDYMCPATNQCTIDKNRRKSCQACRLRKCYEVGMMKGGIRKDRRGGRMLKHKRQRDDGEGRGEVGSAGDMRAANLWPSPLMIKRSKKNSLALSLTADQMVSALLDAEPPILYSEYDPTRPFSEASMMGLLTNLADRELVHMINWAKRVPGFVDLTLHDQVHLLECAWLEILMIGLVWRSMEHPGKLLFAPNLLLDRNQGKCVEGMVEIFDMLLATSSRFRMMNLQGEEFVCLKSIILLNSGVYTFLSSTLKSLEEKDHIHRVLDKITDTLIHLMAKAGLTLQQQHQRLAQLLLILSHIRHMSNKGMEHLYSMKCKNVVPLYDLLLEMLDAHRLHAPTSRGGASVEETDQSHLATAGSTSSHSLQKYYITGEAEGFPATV
# Experimental: Bindings of various gallic acid derivatives to estrogen receptor were tested using FP Screen-for-Competitors kit, ER-α, high sensitivity kit (V2577: PanVera). The tests were carried out basically according to the procedure as described in the manual attached to the kit. One of various gallic acid derivatives (n-octyl gallate (gallic acid n-octyl ester), n-dodecyl gallate (gallic acid n-dodecyl ester) and n-cetyl gallate (gallic acid n-hexadecyl ester)) was dissolved in DMSO and serially diluted to prepare diluted samples (0.5 M - 0.0000000005 M). 49 µL of Screening buffer attached to the kit was added to 1 µL of one of the diluted samples and stirred thoroughly. 50 µL of 10 nM-15 nM:ES1-ER(α) complex (a complex of ES1 (a fluorescent ligand that binds to ER) and ER(α) (estrogen receptor α)) attached to the kit was added thereto, resulting in the total volume of 100 µL. After allowing to stand for 1 hour at room temperature, fluorescence polarization was measured at an excitation wavelength of 360 nm and an emission wavelength of 535 nm using Full-Range BEACON 2000 (PanVera).
# [3] = tested on: human breast cancer-derived MCF-7 cells; experiment: E-SCREEN assay, proliferation of cultured cells, MTT method (Example 8); assay type: cell-based
# Experimental: A test for proliferation of cultured cells was carried out according to a method called the E-SCREEN assay as described in Ana M. Soto et al. (Environ. Health Perspect. 103:113-122(1995)). Briefly, 4.0 x 10^3 of human breast cancer-derived MCF-7 cells in a volume of 100 µL were seeded into each well of a 96-well plate. The plate was incubated overnight. BisA or a combination of BisA and n-octyl gallate was then added thereto. A well without the addition was used as a control. The cells were further cultured for 4 days in a medium, Dulbecco's modified Eagle medium without Phenol Red supplemented with 5% FCS treated with activated carbon-dextran. The MTT method was used to measured the cell numbers.
# [4] = tested on: female SD rat; experiment: Anti-estrogenic activity of n-octyl gallate against BisA, rat uterine weight (Example 9); assay type: in vivo; details: for Uterine weight: 1.5 hours before BisA, 3 days; for Ratio: vs control (100%)
# Experimental: as §1, with “BisA” for “NP weighed such that it would be administered at 50 mg/kg”, “dissolved in a small volume of ethanol. Peanut oil was added thereto to result in a final ethanol concentration of 5%.” for “diluted by adding peanut oil.”
# [5] = tested on: female SD rat; experiment: Anti-estrogenic activity of n-octyl gallate or n-cetyl gallate against subcutaneously administered BisA, rat uterine weight (Example 11); assay type: in vivo; details: for Uterine weight: 3 days; for Ratio: vs control (100%)
# Experimental: A 17-days old female SD rat (Japan SLC) was purchased together with its mother, weaned at 20 days of age, and subjected to experiments from the next day. n-Octyl gallate or n-cetyl gallate (both from Tokyo Kasei Kogyo) was dissolved in a small volume of ethanol. Peanut oil was added thereto to result in a final ethanol concentration of 5%. The resulting mixture was orally administered to the 21-days old female SD rat for three successive days. The uterine removed on the day after the last administration day was weighed. Peanut oil containing 5% ethanol was used for a vehicle administration group. BisA was dissolved in a small volume of ethanol. Peanut oil was added thereto to result in a final ethanol concentration of 5%. The mixture was subcutaneously administered.
# [6] = NP 50 mg/kg oral + n-octyl gallate 25 mg/kg oral
# [7] = NP 50 mg/kg oral + n-octyl gallate 126 mg/kg oral
# [8] = BisA 40 mg/kg oral + n-octyl gallate 25 mg/kg oral
# [9] = BisA 40 mg/kg oral + n-octyl gallate 126 mg/kg oral
# [10] = BisA 40 mg/kg subcutaneous + n-octyl gallate 5 mg/kg oral
# [11] = BisA 40 mg/kg subcutaneous + n-octyl gallate 25 mg/kg oral
smiles,measurement,setting,value
"CCCCCCCCOC(=O)c1cc(O)c(O)c(O)c1 [n-octyl gallate, gallic acid n-octyl ester]",Uterine weight,[1]; [6],40.4 ± 3.6 mg
same,Uterine weight,[1]; [7],38.6 ± 2.4 mg
same,Ratio,[1]; [6],122%
same,Ratio,[1]; [7],117%
same,IC50,[2],3.38 µM
same,Relative rate of increase in cell number,"[3]; BisA + n-octyl gallate, MCF-7, 4 days culture, control = 100",91%
same,suppression of the proliferation of the cells (in words),"[3]; BisA and n-octyl gallate added, MCF-7",suppressed to a degree almost the same as that of the control
same,Uterine weight,[4]; [8],32.7 ± 3.5 mg
same,Uterine weight,[4]; [9],32.9 ± 3.6 mg
same,Ratio,[4]; [8],108%
same,Ratio,[4]; [9],108%
same,Uterine weight,[5]; [10],48.3 ± 1.5 mg
same,Uterine weight,[5]; [11],42.1 ± 1.9 mg
same,Ratio,[5]; [10],117%
same,Ratio,[5]; [11],102%
